Assay results: patent EP0294746A1, “Bicyclic nitro compounds” (L. GIVAUDAN & CIE Société Anonyme, priority 1987, dated 1988)

How the values were obtained:
[1] = Odour description (olfactory evaluation); settings: odour note in words
[2] = Odour threshold and odour value determination; settings: definition per Huber, Seifen-Oele-Fette-Wachse 110 (1984) 448-451
Protocol: Die Verbindungen der Formel I eignen sich aufgrund ihrer natürlichen Geruchsnoten insbesondere zur Modifizierung von bekannten Kompositionen. Hervorgehoben werden soll insbesondere ihre ausserordentliche Geruchsstärke: Der Geruchsschwellenwert beträgt 0,29 bzw. 0,57 ng/l, der Geruchswert 2983 bzw. 2139. Bezüglich Definition von Geruchswert und Geruchsschwellenwert siehe z.B. Ulrich A. Huber, Seifen - -Oele - Fette - Wachse 110, Nr. 15 (1984) 448-451.

## CCc1cc2c(cc1[N+](=O)[O-])C(C)(C)C(C)C2(C)C (stereo not shown) [Beispiel 2, 5-Nitro-6-äthyl-1,1,2,3,3-pentamethylindan]
[1]
  Geruch: moschus-artig
[2]
  Geruchsschwellenwert: 0,29 ng/l

## CCc1cc2c(cc1[N+](=O)[O-])C(C)(C)CCC2(C)C [Beispiel 1, 6-Nitro-7-äthyl-1,1,4,4-tetramethyl-1,2,3,4-tetrahydronaphthalin]
[1]
  Geruch: Moschus-artig, süss, pudrig
[2]
  Geruchsschwellenwert: 0,57 ng/l
